# “And” between values parts separate entries of the source, which are not always exact repeats. Equal entries are not always repeated.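 In this assay, cells in 96-well plates receive the compound at five concentrations for 48 hours. Endpoints are linearly interpolated between the surrounding concentrations. GI50 is the concentration that inhibits growth by half. TGI marks complete inhibition of growth.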
# Test system: M14 melanoma
# Assay: growth of human tumour cells (NCI), 48 h
row,Compound,TGI
1,Cc1ccc(N=Nc2ccc(N(CCC#N)CCC#N)cc2C)c(Br)c1,92.3 µM
2,COc1ccc2c3c1C(=O)CCCC3CO2 (stereo unspecified),> 100 µM

# Test system: SK-OV-3 ovarian
# Assay: growth of human tumour cells (NCI), 48 h
Compound,TGI,GI50
CCCCC(=O)OCC(=O)[C@]1(O)Cc2c(O)c3c(c(O)c2[C@@H](OC2CC(NC(=O)C(F)(F)F)C(O)C(C)O2)C1)C(=O)c1c(OC)cccc1C3=O (stereo partly specified),1.73 µM,
C[C@]12CC[C@H](O)CC1=CC[C@@H]1C2CC[C@]2(C)C(=O)N(N)C(=O)CC12 (stereo partly specified),> 100 µM,
C=C(CN1CCN(c2ccc(Cl)cc2F)CC1)c1ccc(C(=O)Nc2ccccc2N)cc1,> 25.7 µM,
CC(C)=CC(=O)C1c2cccc(O)c2C(=O)c2c(O)cc(C)cc21 (stereo unspecified),8.48 µM,
COC(CN1C(=O)c2cccc3cccc(c23)C1=O)OC,> 100 µM,
O=C(Nc1ccccc1)NS(=O)(=O)c1ccc(-n2nc3c(c2-c2cccs2)Cc2ccccc2-3)cc1,> 100 µM,60.8 µM
O=C1C=C(Cl)C(=O)C(c2ccc(Cl)cc2)=C1,> 100 µM,
Cc1ccc2c(=O)cc(-c3ccc(F)cc3)[nH]c2n1,> 100 µM,
CCOc1ccc(NC(=O)C(=O)CC(=O)c2c[n+](=O)c3cc(C)c(C)cc3n2[O-])cc1,> 100 µM,
Cn1cc(C2=C(c3cn(C)c4ncccc34)C(=O)NC2=O)c2ccccc21,21.7 µM,6.97 µM
O=C1C(Cl)=C(Nc2cccc(Cl)c2)C(=O)N1Cc1ccc(Cl)cc1Cl,20.6 µM,3.57 µM
O=C(/C=C/C12c3ccccc3C(c3ccccc31)C1C(=O)NC(=O)C12)c1ccncc1 (stereo unspecified),26.7 µM,13.2 µM
CC12CCC(O)CC1CCC1C2CCC2(C)C(C3=CC(=O)OC3)CCC12O (stereo unspecified),18.5 µM,
COc1ccc2c(c1)/C(=C/c1c(C)nc3sc(C)nn13)C(=O)N2,> 27.5 µM,3.62 µM
Cc1cc(I)cc(CN(C)CCCCN2CCCCC2)c1O,42.4 µM,18.3 µM
Cc1ccc(C(=O)/C(=C/c2ccc([N+](=O)[O-])cc2)SCc2ccc(Cl)cc2)cc1,> 100 µM,27.4 µM

Compound,TGI,GI50
O=C(Nc1ccc(Cl)c(Cl)c1)Nc1ccc(Cl)c(Cl)c1,11.6 µM and 15.9 µM,3.39 µM and 3.82 µM
C#Cc1ccc(-n2c(/C=C/c3ccc(C(F)(F)F)cc3)nc3ncccc3c2=O)cc1,13.4 µM,3.61 µM
COc1cc(/C=N/NC(=O)c2ccc(C(F)(F)F)nc2Nc2ccc(Cl)cc2C)ccc1O,15.6 µM,3.79 µM
O=C(N/C(=C\c1ccc(/C=C(\NC(=O)c2ccccc2)c2nc3cc([N+](=O)[O-])ccc3[nH]2)cc1)c1nc2cc([N+](=O)[O-])ccc2[nH]1)c1ccccc1,> 100 µM,
COc1ccc(C(=O)Cn2c(C(=O)c3ccccc3)nc(-c3ccc(OC)cc3)c2-c2ccc(OC)cc2)cc1,> 100 µM,97.8 µM
O=C1c2ccccc2C2C1N2C(=O)C(F)(F)F (stereo unspecified),> 100 µM,
CCOC(=O)[C@]1(OC(C)=O)C[C@H](OC(C)=O)[C@@H](C(F)COP(=O)(OCc2ccccc2)OCc2ccccc2)O1 (stereo partly specified),> 100 µM,
c1ccc2cc(-c3cc(-c4cc(-c5ccc6ccccc6c5)on4)no3)ccc2c1,> 100 µM,
CC1(c2ccc(F)cc2)C(C#N)C(=O)NC(=O)C1C#N (stereo unspecified),> 100 µM,
O=C1C2C(C(=O)N1OS(=O)(=O)c1ccccc1)N(Cc1ccccc1)C(=O)N2Cc1ccccc1 (stereo unspecified),> 100 µM,
COc1cc(-c2nn(-c3ccc(NC(=O)c4ccc(Cl)c(C(F)(F)F)c4)cc3)cc2-c2ccncc2)ccc1Cl,> 100 µM,> 27.1 µM
CN(C)CC[N+]1=Nc2cccc3cccc(c23)N1,> 100 µM,
COc1ccc2c(C3=C(c4cn(C)c5ccccc45)C(=O)NC3=O)cn(C)c2c1,> 25 µM,0.138 µM
Cc1ccc(N=Nc2ccc(N(CCC#N)CCC#N)cc2C)c(Br)c1,> 100 µM,
COc1ccc2c3c1C(=O)CCCC3CO2 (stereo unspecified),> 100 µM,

# Test system: SF-539 CNS
# Assay: growth of human tumour cells (NCI), 48 h
Compound,TGI,GI50
CCCCC(=O)OCC(=O)[C@]1(O)Cc2c(O)c3c(c(O)c2[C@@H](OC2CC(NC(=O)C(F)(F)F)C(O)C(C)O2)C1)C(=O)c1c(OC)cccc1C3=O (stereo partly specified),2.98 µM,
C[C@]12CC[C@H](O)CC1=CC[C@@H]1C2CC[C@]2(C)C(=O)N(N)C(=O)CC12 (stereo partly specified),> 100 µM,
C=C(CN1CCN(c2ccc(Cl)cc2F)CC1)c1ccc(C(=O)Nc2ccccc2N)cc1,> 52.8 µM,2.02 µM
CC(C)=CC(=O)C1c2cccc(O)c2C(=O)c2c(O)cc(C)cc21 (stereo unspecified),3.04 µM,
COC(CN1C(=O)c2cccc3cccc(c23)C1=O)OC,> 100 µM,
O=C(Nc1ccccc1)NS(=O)(=O)c1ccc(-n2nc3c(c2-c2cccs2)Cc2ccccc2-3)cc1,55.5 µM,25 µM
O=C1C=C(Cl)C(=O)C(c2ccc(Cl)cc2)=C1,32.4 µM,
Cc1ccc2c(=O)cc(-c3ccc(F)cc3)[nH]c2n1,> 100 µM,

# From PubChem BioAssay (NCI)
